From patent US20160199434A1, “COMPOSITIONS AND METHODS FOR MODULATING DNA METHYLATION” (OHIO STATE INNOVATION FOUNDATION, priority 2013, published 2016)
“Also recorded” adds a separate entry of the source.

Tests used:
[1] = test system: DNMT-1; assay: DNMT-1 mRNA expression by RT-PCR in PyMT tumor cells; type: cell-based, mouse; conditions: for DNMT-1 mRNA expression: PyMT tumor cells, 24 hours, compared to DMSO (FIG. 1A)
Method: (§1) FIGS. 1A-1E show DNA methyltransferase mRNA expression in vitro and in vivo. […] PyMT tumor cells were left untreated, were treated with DMSO, or were treated with AKB-6899 (10, 25, or 50 μM) for 24 hours. The cells were subjected to Trizol extraction to recover total RNA. cDNA was synthesized for RT-PCR of DNMT-1 and DNMT-3a mRNA expression. […] Human MDA-MB-231 tumor cells were left untreated, were treated with DMSO, or were treated with AKB-6899 (25 μM) for 24 hours. Total RNA was isolated for RT-PCR. FIG. 1C (DNMT-1), FIG. 1D (DNMT-3a), and FIG. 1E (DNMT-3b) compare the effect of AKB-6899 with the effect of 5-aza-2′deoxycytidine (5-AZA) as assessed by RT-PCR in human cervical tumors implanted in mice that were either untreated (UTX), treated with DMSO, treated with 5-AZA, or treated with AKB-6899 (17.5 mg/kg).
(§2) Because DSP is regulated by ER/PR expression, and because late-stage PyMT tumors lose ER/PR-positivity and heavily metastasize to the lymph nodes and lungs (Lin et al., 2003), the effects of AKB-6899 on more global events that regulate gene expression was evaluated. PyMT tumor cells in culture were treated with DMSO or AKB-6899. Methylation-specific PCR for CpG islands in the desmoplakin promoter were performed. […] Trypan Blue confirmed no cell death in AKB-6899 treated cells when compared to control cells. The experiment was repeated and RNA was isolated from the cells. RT-PCR was performed and the regulation of DNA methyltransferases (DNMTs) was evaluated. […] (FIG. 1A). The decrease in mRNA levels of DNMT-1 and DNMT-3a increased the mRNA level of DSP (FIG. 4A) and increased desmoplakin protein expression (FIG. 5A).

[2] = test system: panel of 14 common tumor suppressor genes; assay: mRNA expression of 14 tumor suppressor genes in H1703 cells; type: cell-based, human
From the text: (§3) FIGS. 12A-12D show the level of mRNA expression for a panel of 14 common tumor suppressor genes in two types of human lung cancer cells (i.e., H1703 squamous cell carcinoma in FIG. 12A and A549 adenocarcinoma in FIG. 12B). […] All of the tumor suppressor mRNAs were augmented in response to AKB-6899 but one, the CDKN1C gene in A549 adenocarcinoma cells, in which expression levels were 0.1 (AKB10) and 0.9 (AKB50) compared to DMSO standardized to 1.0. In FIGS. 12A-12B, the following apply: “1”=DMSO, “2”=AKB-6899 (10 μM), “3”=AKB-6899 (50 μM), and “4”=combination of Decitabine (5 μM)/PBA (2 mM). FIGS. 12C and 12D are raw values for mRNA expression of these 14 genes.

[3] = test system: DNMT-3a; assay: DNMT-3a mRNA expression by RT-PCR in PyMT tumor cells; type: cell-based, mouse; conditions: for DNMT-3a mRNA expression: PyMT tumor cells, 24 hours, compared to DMSO (FIG. 1A)
Method: as §1, §2

[4] = test system: desmoplakin (DSP) gene promoter; assay: Methylation-specific PCR of DSP promoter in MDA-MB-231 cells; type: cell-based, human
Method: FIGS. 3A-3E show the effect of AKB-6899 (25 μM) on methylation of the desmoplakin (DSP) gene promoter in PyMT breast cancer cells (3A), human MDA-MB-231 triple negative breast cancer cells (3B), human C8161.9 melanoma cells (3C), and human MCF-7 breast cancer cells (3D). In FIG. 3A, the DSP promoter was 100% unmethylated (AKB-6899) vs. 99.99% methylated (vehicle). In FIG. 3B, the DSP promoter was 99.62% unmethylated (AKB-6899) v. 99.89% (vehicle). In FIG. 3C, the DSP promoter was 99.90% unmethylated (AKB-6899) v. 42.04% (vehicle). In FIG. 3D, the DSP promoter was 92.48% unmethylated (AKB-6899) v. 98.48% (vehicle). In FIG. 3E, when compared to the vehicle (DMSO), treatment of PyMT cells with AKB-6899 increased DSP expression.
To determine whether the decrease in DNMT expression and the increase in DSP expression were relevant in human cancer, the level of desmoplakin expression in MDA-MB-231 human triple negative breast cancer cells was determined. […] (FIG. 3B).

[5] = test system: panel of 14 common tumor suppressor genes; assay: mRNA expression of 14 tumor suppressor genes in A549 cells; type: cell-based, human; conditions: for CDKN1C mRNA expression level: DMSO standardized to 1.0
From the text: as §3

[6] = test system: c-Myc promoter; assay: Percent DNA methylation of c-Myc promoter in human cervical tumors in animals; type: in vivo; conditions: animal models of human cervical tumors, 17.5 mg/kg (FIG. 7A)
Method: Animal models of human cervical tumors were untreated, treated with DMSO, treated with 5-AZA or treated with AKB-6899 (17.5 mg/kg).

[7] = PyMT tumor cells in culture, concentration not given

`O=C(O)CNC(=O)c1ncc(-c2cccc(F)c2)cc1O` [AKB-6899, {[5-(3-Fluorophenyl)-3-hydroxypyridine-2-carbonyl]amino}acetic acid] was tested, and the “DNMT-1 mRNA level” value [1, 7] was “significant decreases; also recorded: downregulated”, the “DNMT-1 mRNA expression” value ([1]; 10 μM) was “significantly inhibited” and the “DNMT-1 mRNA expression” value ([1]; 25 μM) was “significantly inhibited”. For the same molecule, the “DNMT-1 mRNA expression” value ([1]; 50 μM) was “significantly inhibited”, the “tumor suppressor mRNA expression” value ([2]; H1703, 10 μM and 50 μM, vs DMSO) was “augmented” and the “induction of mRNA expression in H1703 compared with A549” value ([2]; H1703 vs A549, Decitabine 5 μM/PBA 2 mM) was “more effective”. For the same molecule, the “DNMT-3a mRNA level” value [3, 7] was “significant decreases; also recorded: downregulated”, the “DNMT-3a mRNA expression” value ([3]; 25 μM) was “significantly inhibited” and the “DNMT-3a mRNA expression” value ([3]; 50 μM) was “significantly inhibited”. The “methylation state of DSP promoter CpG islands (in words)” value ([4]; MDA-MB-231 cells) was “almost entire demethylation; also recorded: near complete”, the “desmoplakin promoter methylation after treatment” value ([4]; MDA-MB-231 human triple negative breast cancer cells) was 0.38% and the DSP promoter unmethylated ([4]; MDA-MB-231 triple negative breast cancer cells, 25 μM (FIG. 3B)) was 99.62%. The “CDKN1C mRNA expression level” value ([5]; A549, 10 μM (AKB10)) was 0.1, the “tumor suppressor mRNA expression” value ([5]; A549, 10 μM and 50 μM, vs DMSO, all genes but CDKN1C) was “augmented” and the “CDKN1C mRNA expression level” value ([5]; A549, 50 μM (AKB50)) was 0.9. The “DNA methylation of c-Myc promoter” value [6] was “completely demethylated”.
